Biological target: F508delCFTR (Homo sapiens, UniProt P13569, DEL508-508)
Assay: Cell Surface Expression-Horse Radish Peroxidase (CSE-HRP) assay
Type: cell-based
Parameters: expressed in transfected cells; host or cells: CFBE41o- human lung derived epithelial cell line, doxycycline-inducible
Settings: CFBE4lo-F508delCFTR-HRP cells; for EC50: 18-24 hours at 33° C., 8-point curve, highest concentration 20 μM, luminescence readout
Procedure, shortened: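 Following 18-24 h compound exposure at 33° C. Expression was doxycycline-induced beforehand. % activity versus DMSO and a 3 μM corrector control gave maximum activity and EC50 from a variable-Hill sigmoidal fit.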

[1] = maximum % activity at any tested concentration, normalized to on-plate positive control (3 μM Example 1)

F508delCFTR, sequence (P13569 with tags, fused parts or gaps DEL508-508): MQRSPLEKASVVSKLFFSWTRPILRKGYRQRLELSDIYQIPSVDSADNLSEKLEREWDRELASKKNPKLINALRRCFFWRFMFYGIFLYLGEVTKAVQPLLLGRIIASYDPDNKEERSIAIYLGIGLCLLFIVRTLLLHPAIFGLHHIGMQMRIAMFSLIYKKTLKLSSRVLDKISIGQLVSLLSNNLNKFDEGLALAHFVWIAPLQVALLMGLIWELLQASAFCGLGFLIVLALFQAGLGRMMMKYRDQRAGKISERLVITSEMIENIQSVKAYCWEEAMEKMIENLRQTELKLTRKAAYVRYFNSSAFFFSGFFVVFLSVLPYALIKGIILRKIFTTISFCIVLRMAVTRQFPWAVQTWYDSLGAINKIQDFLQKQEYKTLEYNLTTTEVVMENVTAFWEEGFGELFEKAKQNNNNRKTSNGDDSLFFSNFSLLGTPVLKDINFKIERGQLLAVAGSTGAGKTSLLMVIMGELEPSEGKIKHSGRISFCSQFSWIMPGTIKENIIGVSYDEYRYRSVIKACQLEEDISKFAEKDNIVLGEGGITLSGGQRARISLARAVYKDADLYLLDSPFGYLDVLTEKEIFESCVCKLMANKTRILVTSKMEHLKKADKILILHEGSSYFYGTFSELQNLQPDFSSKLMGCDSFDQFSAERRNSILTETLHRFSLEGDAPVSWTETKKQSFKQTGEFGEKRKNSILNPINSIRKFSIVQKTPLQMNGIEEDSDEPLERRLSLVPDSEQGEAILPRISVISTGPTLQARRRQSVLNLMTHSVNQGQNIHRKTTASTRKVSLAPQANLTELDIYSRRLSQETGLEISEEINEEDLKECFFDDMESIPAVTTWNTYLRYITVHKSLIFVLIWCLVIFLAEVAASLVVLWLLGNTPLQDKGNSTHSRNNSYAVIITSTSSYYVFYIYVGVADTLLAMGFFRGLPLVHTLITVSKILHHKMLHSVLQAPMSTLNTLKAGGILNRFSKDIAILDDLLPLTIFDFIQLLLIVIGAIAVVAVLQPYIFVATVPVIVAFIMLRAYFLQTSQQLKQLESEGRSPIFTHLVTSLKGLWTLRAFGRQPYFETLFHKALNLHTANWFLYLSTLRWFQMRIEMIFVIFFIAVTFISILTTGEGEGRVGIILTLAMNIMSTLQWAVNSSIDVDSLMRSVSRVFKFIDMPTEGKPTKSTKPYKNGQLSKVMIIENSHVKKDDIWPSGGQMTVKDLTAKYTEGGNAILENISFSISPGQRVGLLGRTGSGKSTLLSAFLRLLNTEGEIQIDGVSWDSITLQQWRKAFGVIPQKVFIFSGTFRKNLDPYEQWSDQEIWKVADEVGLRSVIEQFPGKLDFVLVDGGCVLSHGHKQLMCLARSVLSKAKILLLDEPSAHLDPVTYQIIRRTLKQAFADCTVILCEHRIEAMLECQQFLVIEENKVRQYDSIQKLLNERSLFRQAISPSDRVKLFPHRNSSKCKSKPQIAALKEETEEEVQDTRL

EC50 [nM] | Emax [1] [%] | Maximum % activity (%) [1] [%] | Compound
7460 | 34 | – | CC(=O)N1CC2(CC(NC(=O)C3(c4ccc5c(c4)OC(F)(F)O5)CC3)c3ccc(F)cc3O2)C1 (stereo not drawn) [Example 105, N-(1-acetyl-7′-fluoro-3′,4′-dihydrospiro[azetidine-3,2′-chromen]-4′-yl)-1-(2,2-difluoro-1,3-benzodioxol-5-yl)cyclopropanecarboxamide]
310 | 88 | – | O=C(O)c1cccc([C@H]2C[C@@H](NC(=O)C3(c4ccc5c(c4)OC(F)(F)O5)CC3)c3ccc(OCCF)cc3O2)c1 [Example 106, 3-[(2R,4R)-4-({[1-(2,2-difluoro-1,3-benzodioxol-5-yl)cyclopropyl]carbonyl}amino)-7-(2-fluoroethoxy)-3,4-dihydro-2H-chromen-2-yl]benzoic acid]
1130 | 99 | – | COc1ccc2c(c1)OC1(CCN(C(=O)C(C)(C)CO)CC1)CC2NC(=O)C1(c2ccc3c(c2)OC(F)(F)O3)CC1 (stereo not drawn) [Example 107, 1-(2,2-difluoro-1,3-benzodioxol-5-yl)-N-[1′-(3-hydroxy-2,2-dimethylpropanoyl)-7-methoxy-3,4-dihydrospiro[chromene-2,4′-piperidin]-4-yl]cyclopropanecarboxamide]
280 | 115 | – | COC(=O)c1ccc([C@H]2C[C@@H](NC(=O)C3(c4ccc5c(c4)OC(F)(F)O5)CC3)c3ccc(OC)cc3O2)cc1 [Example 110, methyl 4-[(2R,4R)-4-({[1-(2,2-difluoro-1,3-benzodioxol-5-yl)cyclopropyl]carbonyl}amino)-7-methoxy-3,4-dihydro-2H-chromen-2-yl]benzoate]
7640 | 59 | – | COc1ccc2c(c1)OC(C1CNC1)CC2NC(=O)C1(c2ccc3c(c2)OC(F)(F)O3)CC1 (stereo not drawn) [Example 116, N-[2-(azetidin-3-yl)-7-methoxy-3,4-dihydro-2H-chromen-4-yl]-1-(2,2-difluoro-1,3-benzodioxol-5-yl)cyclopropanecarboxamide]
500 | 110 | – | COC(=O)c1ccc([C@H]2C[C@@H](NC(=O)C3(c4ccc5c(c4)OC(F)(F)O5)CC3)c3ccccc3O2)cc1 [Example 120, methyl 4-[(2R,4R)-4-({[1-(2,2-difluoro-1,3-benzodioxol-5-yl)cyclopropyl]carbonyl}amino)-3,4-dihydro-2H-chromen-2-yl]benzoate]
50 | 115 | – | COC(=O)c1ccc([C@H]2C[C@@H](NC(=O)C3(c4ccc5c(c4)OC(F)(F)O5)CC3)c3ccc(OC(F)F)cc3O2)cc1 [Example 123, methyl 4-[(2R,4R)-4-({[1-(2,2-difluoro-1,3-benzodioxol-5-yl)cyclopropyl]carbonyl}amino)-7-(difluoromethoxy)-3,4-dihydro-2H-chromen-2-yl]benzoate]
6760 | 26 | – | CC1(C)CC(NC(=O)C2(c3ccc4c(c3)OC(F)(F)O4)CC2)c2ccc(O)cc2O1 (stereo not drawn) [Example 124, 1-(2,2-difluoro-1,3-benzodioxol-5-yl)-N-(7-hydroxy-2,2-dimethyl-3,4-dihydro-2H-chromen-4-yl)cyclopropanecarboxamide]
2140 | 115 | – | CC1(C)CC(NC(=O)C2(c3ccc4c(c3)OC(F)(F)O4)CC2)c2ccc(OC(F)F)cc2O1 (stereo not drawn) [Example 125, 1-(2,2-difluoro-1,3-benzodioxol-5-yl)-N-[7-(difluoromethoxy)-2,2-dimethyl-3,4-dihydro-2H-chromen-4-yl]cyclopropanecarboxamide]
1380 | 79 | – | COc1ccc2c(c1)OC(C1CCCO1)CC2NC(=O)C1(c2ccc3c(c2)OC(F)(F)O3)CC1 (stereo not drawn) [Example 126, 1-(2,2-difluoro-1,3-benzodioxol-5-yl)-N-[7-methoxy-2-(tetrahydrofuran-2-yl)-3,4-dihydro-2H-chromen-4-yl]cyclopropanecarboxamide]
2810 | 65 | – | COC(=O)c1ccc([C@H]2C[C@@H](NC(=O)C3(c4ccc5c(c4)OC(F)(F)O5)CC3)c3ccc(O)cc3O2)cc1 [Example 127, methyl 4-[(2R,4R)-4-({[1-(2,2-difluoro-1,3-benzodioxol-5-yl)cyclopropyl]carbonyl}amino)-7-hydroxy-3,4-dihydro-2H-chromen-2-yl]benzoate]
4570 | 66 | – | O=C(O)c1ccc([C@H]2C[C@@H](NC(=O)C3(c4ccc5c(c4)OC(F)(F)O5)CC3)c3ccc(O)cc3O2)cc1 [Example 128, 4-[(2R,4R)-4-({[1-(2,2-difluoro-1,3-benzodioxol-5-yl)cyclopropyl]carbonyl}amino)-7-hydroxy-3,4-dihydro-2H-chromen-2-yl]benzoic acid]
6200 | 44 | – | COc1ccc2c(c1)OC1(CC(C(=O)O)C1)CC2NC(=O)C1(c2ccc3c(c2)OC(F)(F)O3)CC1 (stereo not drawn) [Example 129, 4-({[1-(2,2-difluoro-1,3-benzodioxol-5-yl)cyclopropyl]carbonyl}amino)-7-methoxy-3,4-dihydrospiro[chromene-2,1′-cyclobutane]-3′-carboxylic acid]
140 | 131 | – | COC(=O)c1ccc([C@H]2C[C@@H](NC(=O)C3(c4ccc5c(c4)OC(F)(F)O5)CC3)c3ccc(OC)cc3O2)cc1F [Example 137, methyl 4-[(2R,4R)-4-({[1-(2,2-difluoro-1,3-benzodioxol-5-yl)cyclopropyl]carbonyl}amino)-7-methoxy-3,4-dihydro-2H-chromen-2-yl]-2-fluorobenzoate]
50 | 119 | – | COC(=O)c1ccc([C@H]2C[C@@H](NC(=O)C3(c4ccc5c(c4)OC(F)(F)O5)CC3)c3ccc(OC)cc3O2)c(F)c1 [Example 138, methyl 4-[(2R,4R)-4-({[1-(2,2-difluoro-1,3-benzodioxol-5-yl)cyclopropyl]carbonyl}amino)-7-methoxy-3,4-dihydro-2H-chromen-2-yl]-3-fluorobenzoate]
6120 | 64 | – | CCOC(=O)C1CC(C2CC(NC(=O)C3(c4ccc5c(c4)OC(F)(F)O5)CC3)c3ccccc3O2)C1 (stereo not drawn) [Example 151, ethyl 3-[4-({[1-(2,2-difluoro-1,3-benzodioxol-5-yl)cyclopropyl]carbonyl}amino)-3,4-dihydro-2H-chromen-2-yl]cyclobutanecarboxylate]
6350 | 59 | – | O=C(O)C1CC(C2CC(NC(=O)C3(c4ccc5c(c4)OC(F)(F)O5)CC3)c3ccccc3O2)C1 (stereo not drawn) [Example 152, 3-[4-({[1-(2,2-difluoro-1,3-benzodioxol-5-yl)cyclopropyl]carbonyl}amino)-3,4-dihydro-2H-chromen-2-yl]cyclobutanecarboxylic acid]
10 | 142 | – | O=C(O)c1ccc([C@H]2C[C@@H](NC(=O)C3(c4cc5c(cc4Br)OC(F)(F)O5)CC3)c3ccc(OC(F)F)cc3O2)cc1 [Example 202, 4-[(2R,4R)-4-({[1-(6-bromo-2,2-difluoro-1,3-benzodioxol-5-yl)cyclopropyl]carbonyl}amino)-7-(difluoromethoxy)-3,4-dihydro-2H-chromen-2-yl]benzoic acid]
40 | 131 | – | COC(=O)c1ccc([C@H]2C[C@@H](NC(=O)C3(c4cc5c(cc4Br)OC(F)(F)O5)CC3)c3ccc(OC)cc3O2)cc1 [Example 202F, methyl 4-((2R,4R)-4-(1-(6-bromo-2,2-difluorobenzo[d][1,3]dioxol-5-yl)cyclopropanecarboxamido)-7-methoxychroman-2-yl)benzoate]
690 | 157 | – | CS(=O)(=O)NC(=O)c1ccc([C@H]2C[C@@H](NC(=O)C3(c4ccc5c(c4)OC(F)(F)O5)CC3)c3ccc(OC(F)F)cc3O2)cc1 [Example 203, 4-[(2R,4R)-4-({[1-(2,2-difluoro-1,3-benzodioxol-5-yl)cyclopropyl]carbonyl}amino)-7-(difluoromethoxy)-3,4-dihydro-2H-chromen-2-yl]-N-(methylsulfonyl)benzamide]
6100 | – | 89 | N-[2-(3,4-dichlorophenyl)-3,4-dihydro-2H-chromen-4-yl]-1-(2,2-difluoro-1,3-benzodioxol-5-yl)cyclopropanecarboxamide [Example 66]

Reference: patent US9642831B2, “Substituted chromanes and method of use” (AbbVie S.á.r.l., priority 2014, dated 2017)
